Columns and labels:
[1] = target: T1, QuantiLum Luciferase (Photinus pyralis, UniProt P08659); assay: Scaffolds: light emission of luciferin derivatives with QuantiLum luciferase alone, + Co A, + DTT, + Co A and DTT; format: biochemical, firefly
T1 construct: purchased Promega Corporation E170
Method: The DTT, Coenzyme A, and QuantiLum stock solutions are the same as those described herein.
This solution was diluted 1:1 with water to produce an enzyme solution labeled "No addition." This solution was diluted 1:1 with 400 mM DTT, pH 8.0 to produce a solution labeled +DTT. This solution was diluted 1:1 with 4 mM Coenzyme A to produce a solution labeled + Co A. Finally, this solution was diluted 1:1 with a solution having both 4 mM Coenzyme A and 400 mM DTT to produce a solution labeled +Co A & DTT.
50 µl samples of these solutions were placed in the wells of luminometer microtiter plates, row A to row G, respeutivly. Row H of the plates was given 50 µl of water.
Reactions in these plates were initiated by addition of 50 µl of solution containing QuantiLum luciferase using a 12 channel micropipette. The solutions added to the rows were: columns 1, 5, and 9 - no addition solution; columns 2, 6, and 10 - + Co A solution; columns 3, 7, and 11 + DTT solution, and; columns 4, 8, and 12 - + Co A and DTT solution. After addition of the enzyme solution to the first row on every plate, a timer was started. After addition of the enzyme solution to the last row on each plate, the plate was sealed and read on a Veritas luminometer.

[2] = target: T2, CYP2C19 (Homo sapiens, UniProt P33261); assay: Two-step luminescent P450 screen of luciferin derivatives; format: biochemical; conditions: result in words
T2 construct: purchased Discovery Labware (BD/Gentest); host or cells: insect cell expression system (membrane fractions)
T2 sequence (P33261 whole entry): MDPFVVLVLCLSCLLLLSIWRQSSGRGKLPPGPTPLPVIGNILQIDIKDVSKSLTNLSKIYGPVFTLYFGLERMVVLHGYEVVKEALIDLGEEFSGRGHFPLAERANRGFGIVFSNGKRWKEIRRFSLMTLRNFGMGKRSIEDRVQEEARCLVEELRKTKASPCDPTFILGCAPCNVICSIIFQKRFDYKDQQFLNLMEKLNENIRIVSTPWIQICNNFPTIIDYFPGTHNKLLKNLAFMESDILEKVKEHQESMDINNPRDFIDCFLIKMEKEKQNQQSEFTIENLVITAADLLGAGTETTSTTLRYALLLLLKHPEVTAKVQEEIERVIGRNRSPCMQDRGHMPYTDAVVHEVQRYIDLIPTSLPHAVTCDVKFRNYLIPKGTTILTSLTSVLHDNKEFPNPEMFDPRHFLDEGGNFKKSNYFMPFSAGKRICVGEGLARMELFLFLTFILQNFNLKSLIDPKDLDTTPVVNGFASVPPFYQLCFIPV
Method: (§1) P450s are Supersomes™ purchased from Discovery Labware (BD/Gentest). […] HLM is human liver microsomes.
(§2) 1X substrate concentration: 50 µM.
(§3) For Figure 20, 1 or 5 picomoles of recombinant CYP2D6 or CYP2C19 membrane fractions from an insect cell expression system (SupersomesTM, Discovery Labware) were incubated at 37°C for 60 minutes with 200 µM D-luciferin 6' methyl ether (luciferin-ME) in 50 mM (CYP2C19) or 100 mM (CYP2D6) KPO4 (pH 7.4) with an NADPH regenerating system (as described above) in a volume of 50 µl. […] For Figure 20, the panel of human P450s was screened as described above.

[3] = target: T3, CYP2D6 (Homo sapiens, UniProt P10635); assay: as above; format: biochemical; conditions: result in words
T3 construct: purchased Discovery Labware (BD/Gentest); host or cells: insect cell expression system (membrane fractions)
T3 sequence (P10635 whole entry): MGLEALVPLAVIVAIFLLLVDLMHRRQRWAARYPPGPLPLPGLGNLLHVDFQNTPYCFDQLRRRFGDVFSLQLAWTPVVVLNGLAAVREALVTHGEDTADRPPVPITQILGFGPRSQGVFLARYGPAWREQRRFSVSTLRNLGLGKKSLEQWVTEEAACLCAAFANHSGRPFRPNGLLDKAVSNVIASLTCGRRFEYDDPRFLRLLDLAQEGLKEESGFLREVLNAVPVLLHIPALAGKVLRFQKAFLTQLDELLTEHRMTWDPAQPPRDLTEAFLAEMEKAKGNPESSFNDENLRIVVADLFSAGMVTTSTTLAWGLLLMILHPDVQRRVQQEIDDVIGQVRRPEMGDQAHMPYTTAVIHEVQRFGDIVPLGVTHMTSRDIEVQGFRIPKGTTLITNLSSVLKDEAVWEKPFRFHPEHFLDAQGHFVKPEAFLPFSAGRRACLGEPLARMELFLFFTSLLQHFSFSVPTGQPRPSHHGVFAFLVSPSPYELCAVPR
Method: as §1, §2, §3

T1 sequence (P08659 whole entry): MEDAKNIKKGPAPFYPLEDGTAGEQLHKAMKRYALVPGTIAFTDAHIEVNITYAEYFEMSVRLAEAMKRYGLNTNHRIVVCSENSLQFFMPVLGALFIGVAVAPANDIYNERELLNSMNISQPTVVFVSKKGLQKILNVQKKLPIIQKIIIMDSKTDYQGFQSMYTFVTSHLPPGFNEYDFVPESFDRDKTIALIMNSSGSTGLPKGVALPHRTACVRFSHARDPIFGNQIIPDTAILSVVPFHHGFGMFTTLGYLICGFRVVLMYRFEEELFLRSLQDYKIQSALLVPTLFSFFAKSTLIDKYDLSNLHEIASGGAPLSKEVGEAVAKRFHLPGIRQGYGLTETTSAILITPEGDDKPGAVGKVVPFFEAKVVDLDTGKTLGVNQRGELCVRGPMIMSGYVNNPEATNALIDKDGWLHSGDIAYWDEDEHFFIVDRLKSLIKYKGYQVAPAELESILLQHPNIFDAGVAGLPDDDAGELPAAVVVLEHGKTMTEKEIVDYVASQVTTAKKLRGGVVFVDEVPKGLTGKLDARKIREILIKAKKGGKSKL

light emission values ([1]; Derivative Conc. 1.07, Alone): 1197
light emission values ([1]; Derivative Conc. 1.07, Co A): 1523
light emission values ([1]; Derivative Conc. 1.07, Co A + DTT): 3180
light emission values ([1]; Derivative Conc. 1.07, DTT): 3160
light emission values ([1]; Derivative Conc. 3.13, Alone): 1053
light emission values ([1]; Derivative Conc. 3.13, Co A): 1360
light emission values ([1]; Derivative Conc. 3.13, Co A + DTT): 2853
light emission values ([1]; Derivative Conc. 3.13, DTT): 3332
light emission values ([1]; Derivative Conc. 6.25, Alone): 1240
light emission values ([1]; Derivative Conc. 6.25, Co A): 1673
light emission values ([1]; Derivative Conc. 6.25, Co A + DTT): 2882
light emission values ([1]; Derivative Conc. 6.25, DTT): 2844
light emission values ([1]; Derivative Conc. 12.5, Alone): 1563
light emission values ([1]; Derivative Conc. 12.5, Co A): 1768
light emission values ([1]; Derivative Conc. 12.5, Co A + DTT): 2510
light emission values ([1]; Derivative Conc. 12.5, DTT): 2961
light emission values ([1]; Derivative Conc. 25, Alone): 2083
light emission values ([1]; Derivative Conc. 25, Co A): 2224
light emission values ([1]; Derivative Conc. 25, Co A + DTT): 2992
light emission values ([1]; Derivative Conc. 25, DTT): 3491
light emission values ([1]; Derivative Conc. 50, Alone): 2690
light emission values ([1]; Derivative Conc. 50, Co A): 2704
light emission values ([1]; Derivative Conc. 50, Co A + DTT): 3635
light emission values ([1]; Derivative Conc. 50, DTT): 4052
light emission values ([1]; Derivative Conc. 100, Alone): 3589
light emission values ([1]; Derivative Conc. 100, Co A): 3389
light emission values ([1]; Derivative Conc. 100, Co A + DTT): 4550
light emission values ([1]; Derivative Conc. 100, DTT): 5399
P450 activity / selectivity with the derivative as substrate [2]: some activity
P450 activity / selectivity with the derivative as substrate [3]: extremely low activity
P450 activity / selectivity with the derivative as substrate ([3]; listed as Luciferin 6-methyl ether): some activity
SMILES: COc1ccc2nc(C3=N[C@@H](C(=O)O)CS3)sc2c1 [luciferin 6-methyl ether, D-luciferin 6' methyl ether, reference compound]

From EP1935986B1, “Luminogenic and fluorogenic compounds and methods to detect molecules or conditions” (priority 2005, dated 2006)
